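Dose response: 5 concentrations. Exposure: 48 h. Format: 96-well plates. Endpoint: linear interpolation; highest concentration if not reached. GI50 is the concentration that inhibits growth by half. TGI: total growth inhibition.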
Tests used:
Assay in all cases: NCI anticancer screen, dose series, 48 h
786-0 renal = system: 786-0 renal
A498 renal = system: A498 renal
A549 NSCLC = system: A549 NSCLC
ACHN renal = system: ACHN renal
BT-549 breast = system: BT-549 breast
CAKI-1 renal = system: CAKI-1 renal
CCRF-CEM leukemia = system: CCRF-CEM leukemia
COLO 205 colon = system: COLO 205 colon
DU-145 prostate = system: DU-145 prostate
EKVX NSCLC = system: EKVX NSCLC
HCC-2998 colon = system: HCC-2998 colon
HCT-116 colon = system: HCT-116 colon
HCT-15 colon = system: HCT-15 colon
HL-60(TB) leukemia = system: HL-60(TB) leukemia
HOP-62 NSCLC = system: HOP-62 NSCLC
HOP-92 NSCLC = system: HOP-92 NSCLC
HS 578T breast = system: HS 578T breast
HT29 colon = system: HT29 colon
IGROV1 ovarian = system: IGROV1 ovarian
K-562 leukemia = system: K-562 leukemia
KM12 colon = system: KM12 colon
LOX IMVI melanoma = system: LOX IMVI melanoma
M14 melanoma = system: M14 melanoma
MALME-3M melanoma = system: MALME-3M melanoma
MCF7 breast = system: MCF7 breast
MDA-MB-231 breast = system: MDA-MB-231 breast
MDA-MB-435 = system: MDA-MB-435
MOLT-4 leukemia = system: MOLT-4 leukemia
NCI-H226 lung = system: NCI-H226 lung
NCI-H23 lung = system: NCI-H23 lung
NCI-H460 lung = system: NCI-H460 lung
NCI-H522 lung = system: NCI-H522 lung
NCI/ADR-RES ovarian = system: NCI/ADR-RES ovarian
OVCAR-3 ovarian = system: OVCAR-3 ovarian
OVCAR-4 ovarian = system: OVCAR-4 ovarian
OVCAR-5 ovarian = system: OVCAR-5 ovarian
OVCAR-8 ovarian = system: OVCAR-8 ovarian
PC-3 prostate = system: PC-3 prostate
RPMI-8226 leukemia = system: RPMI-8226 leukemia
RXF 393 renal = system: RXF 393 renal
SF-268 CNS = system: SF-268 CNS
SF-295 CNS = system: SF-295 CNS
SF-539 CNS = system: SF-539 CNS
SK-MEL-2 melanoma = system: SK-MEL-2 melanoma
SK-MEL-28 melanoma = system: SK-MEL-28 melanoma
SK-MEL-5 melanoma = system: SK-MEL-5 melanoma
SK-OV-3 ovarian = system: SK-OV-3 ovarian
SN12C renal = system: SN12C renal
SNB-19 CNS = system: SNB-19 CNS
SNB-75 CNS = system: SNB-75 CNS
SR leukemia = system: SR leukemia
SW-620 colon = system: SW-620 colon
T-47D breast = system: T-47D breast
TK-10 renal = system: TK-10 renal
U251 CNS = system: U251 CNS
UACC-257 melanoma = system: UACC-257 melanoma
UACC-62 melanoma = system: UACC-62 melanoma
UO-31 renal = system: UO-31 renal

O=S(=O)(Nc1ccc(Br)cc1)c1ccc(-c2cnc(C3CC3)o2)cc1
GI50 (786-0 renal): 5.34 µM
TGI (786-0 renal): 20.1 µM
GI50 (A498 renal): 0.31 µM
TGI (A498 renal): 2.63 µM
GI50 (A549 NSCLC): 3.85 µM
TGI (A549 NSCLC): 22.5 µM
GI50 (ACHN renal): 4.9 µM
TGI (ACHN renal): 17.5 µM
GI50 (BT-549 breast): 3.37 µM
TGI (BT-549 breast): 19.4 µM
GI50 (CAKI-1 renal): 1.07 µM
TGI (CAKI-1 renal): 15.1 µM
GI50 (CCRF-CEM leukemia): 2.14 µM
TGI (CCRF-CEM leukemia): 16.2 µM
GI50 (COLO 205 colon): 2.53 µM
TGI (COLO 205 colon): 12.1 µM
GI50 (DU-145 prostate): 3.8 µM
TGI (DU-145 prostate): 17.4 µM
GI50 (EKVX NSCLC): 3.39 µM
TGI (EKVX NSCLC): 17.5 µM
GI50 (HCC-2998 colon): 2.38 µM
TGI (HCC-2998 colon): 15.4 µM
GI50 (HCT-116 colon): 2.2 µM
TGI (HCT-116 colon): 16 µM
GI50 (HCT-15 colon): 0.644 µM
TGI (HCT-15 colon): 14.2 µM
GI50 (HL-60(TB) leukemia): 1.47 µM
TGI (HL-60(TB) leukemia): 6.41 µM
GI50 (HOP-62 NSCLC): 2.37 µM
TGI (HOP-62 NSCLC): 16.6 µM
GI50 (HOP-92 NSCLC): 3.39 µM
TGI (HOP-92 NSCLC): 18.6 µM
GI50 (HS 578T breast): 1.38 µM
TGI (HS 578T breast): 6.17 µM
GI50 (HT29 colon): 0.715 µM
TGI (HT29 colon): 15.9 µM
GI50 (IGROV1 ovarian): 2.57 µM
TGI (IGROV1 ovarian): 15.8 µM
GI50 (K-562 leukemia): 0.41 µM
TGI (K-562 leukemia): > 100 µM
GI50 (KM12 colon): 1.13 µM
TGI (KM12 colon): 17.5 µM
GI50 (LOX IMVI melanoma): 2.41 µM
TGI (LOX IMVI melanoma): 18 µM
GI50 (M14 melanoma): 1.41 µM
TGI (M14 melanoma): 16.1 µM
GI50 (MALME-3M melanoma): 1.66 µM
TGI (MALME-3M melanoma): 17.8 µM
GI50 (MCF7 breast): 0.651 µM
TGI (MCF7 breast): 13.9 µM
GI50 (MDA-MB-231 breast): 3.77 µM
TGI (MDA-MB-231 breast): 17.8 µM
GI50 (MDA-MB-435): 0.239 µM
TGI (MDA-MB-435): 0.646 µM
GI50 (MOLT-4 leukemia): 2.16 µM
TGI (MOLT-4 leukemia): 24.2 µM
GI50 (NCI-H226 lung): 6.26 µM
TGI (NCI-H226 lung): 25 µM
GI50 (NCI-H23 lung): 2.99 µM
TGI (NCI-H23 lung): 15.1 µM
GI50 (NCI-H460 lung): 2.2 µM
TGI (NCI-H460 lung): 10.2 µM
GI50 (NCI-H522 lung): 0.855 µM
TGI (NCI-H522 lung): 12.9 µM
GI50 (NCI/ADR-RES ovarian): 1 µM
TGI (NCI/ADR-RES ovarian): 10.4 µM
GI50 (OVCAR-3 ovarian): 1.05 µM
TGI (OVCAR-3 ovarian): 3.96 µM
GI50 (OVCAR-4 ovarian): 3.8 µM
TGI (OVCAR-4 ovarian): 18 µM
GI50 (OVCAR-5 ovarian): 4.55 µM
TGI (OVCAR-5 ovarian): 17.1 µM
GI50 (OVCAR-8 ovarian): 4.16 µM
TGI (OVCAR-8 ovarian): 20.4 µM
GI50 (PC-3 prostate): 2.67 µM
TGI (PC-3 prostate): 15.5 µM
GI50 (RPMI-8226 leukemia): 2.62 µM
TGI (RPMI-8226 leukemia): 14.5 µM
GI50 (RXF 393 renal): 1.61 µM
TGI (RXF 393 renal): 7.6 µM
GI50 (SF-268 CNS): 5.05 µM
TGI (SF-268 CNS): 22.4 µM
GI50 (SF-295 CNS): 1.13 µM
TGI (SF-295 CNS): 11.8 µM
GI50 (SF-539 CNS): 1.86 µM
TGI (SF-539 CNS): 5.91 µM
GI50 (SK-MEL-2 melanoma): 4.2 µM
TGI (SK-MEL-2 melanoma): 20.3 µM
GI50 (SK-MEL-28 melanoma): 10 µM
TGI (SK-MEL-28 melanoma): 22.9 µM
GI50 (SK-MEL-5 melanoma): 2.49 µM
TGI (SK-MEL-5 melanoma): 11.6 µM
GI50 (SK-OV-3 ovarian): 2.49 µM
TGI (SK-OV-3 ovarian): 14.3 µM
GI50 (SN12C renal): 4.41 µM
TGI (SN12C renal): 18.2 µM
GI50 (SNB-19 CNS): 3.98 µM
TGI (SNB-19 CNS): 18.3 µM
GI50 (SNB-75 CNS): 0.518 µM
TGI (SNB-75 CNS): 3.35 µM
GI50 (SR leukemia): 0.349 µM
TGI (SR leukemia): 16.5 µM
GI50 (SW-620 colon): 0.785 µM
TGI (SW-620 colon): 12.3 µM
GI50 (T-47D breast): 2.84 µM
TGI (T-47D breast): 16.9 µM
GI50 (TK-10 renal): 5.36 µM
TGI (TK-10 renal): 21.5 µM
GI50 (U251 CNS): 3.31 µM
TGI (U251 CNS): 18.2 µM
GI50 (UACC-257 melanoma): 10.5 µM
TGI (UACC-257 melanoma): 27.5 µM
GI50 (UACC-62 melanoma): 1.39 µM
TGI (UACC-62 melanoma): 13.7 µM
GI50 (UO-31 renal): 2.41 µM
TGI (UO-31 renal): 15.7 µM

From PubChem BioAssay (NCI)
